Where “and” joins values, the source holds several entries; their conditions need not be identical. Equal values may be shown once. Read-outs that look alike come from different tables or passages of the source.
What was measured:
Format in all cases: in vivo, Arabidopsis thaliana
[1] = system: mik2-1 and mik2-2 mutant seedlings; conditions: for Root length (Fig. 3d) / Root length (Fig. 3b) / Root length (Fig. 3e): individual values, one per line
Arabidopsis leaf disks = test: Ethylene production; conditions: Fig. 2j, leaf disks of 4-week-old plants, peptides at 1 µM, 23 °C, 4 h, GC-FID
Description: Twelve leaves of 4-week-old plants grown on soil were excised into leaf disks of 0.25 cm^2, followed by overnight incubation in a 25 mL glass vial with 2 mL of ddH2O for recovery. Then, ddH2O was replaced by 1 mL of peptides at 1 µM, and the vials were capped immediately with a rubber stopper and incubated at 23 °C with gentle agitation for 4 h. One mL of the vial headspace was injected into a TRACE^TM 1310 Gas Chromatograph (Thermo Fisher Scientific) with FID supported by Chromeleon 7 for quantitation.

[2] = system: MYB51 promoter, pMYB51::GUS seedling roots; test: Histochemical GUS staining, pMYB51::GUS; conditions: pMYB51::GUS seedlings, 1 µM, 3 h
Description: Stained samples were fixed with a 3:1 ethanol:acetic acid solution overnight and cleared by lactic acid and photographed with the Olympus SZX10 stereoscopic microscope equipped with DP27 camera.

Sequence: PNGDIFTGPSGSGHGGGR [SCOOP10B, synthesized SCOOP peptide corresponding to the SxS motif]
- root growth retardation, concentration series, mik2-1 ([1]; 1 to 100 nM SCOOP10^B): completely abolished in mik2-1
- Root length (Fig. 3d) ([1]; mik2-1, 1 nM): 32.99 and 31.78 and 33.56 and 34.62 and 30.06 and 35.81 and 29.29
- Root length (Fig. 3d) ([1]; mik2-1, 10 nM): 32.32 and 29.96 and 32.75 and 34.52 and 30.66 and 29.77 and 30.84 and 33.97
- Root length (Fig. 3d) ([1]; mik2-1, 100 nM): 29.63 and 33.44 and 32.76 and 35.81 and 32.02 and 28.87 and 34.13 and 30.25
- Root length (Fig. 3b) ([1]; mik2-1): 25.833 and 26.302 and 24.889 and 27.342 and 26.636 and 27.534 and 28.728 and 25.164 and 27.761
- Root length (Fig. 3e) ([1]; mik2-1): 22.911 and 21.027 and 23.034 and 25.697 and 26.332 and 26.187 and 22.644 and 27.144 and 23.211 and 23.187
- root growth inhibition in mik2 ([1]; mik2-1 and mik2-2, 10-day-old seedlings, 1 µM peptide): insensitive to the treatment of SCOOP10^B
- Root length (Fig. 3b) ([1]; mik2-2): 28.386 and 27.709 and 30.155 and 29.447 and 28.883 and 28.332 and 29.63 and 28.607 and 26.83
- Root length (Fig. 3e) ([1]; mik2-2): 22.343 and 22.532 and 23.158 and 21.859 and 27.286 and 27.619 and 26.253 and 24.148 and 29.659 and 25.362
- ethylene production (Arabidopsis leaf disks; repeat 1): 2.0449 ppm
- ethylene production (Arabidopsis leaf disks; repeat 2): 1.4942 ppm
- ethylene production (Arabidopsis leaf disks; repeat 3): 1.8726 ppm
- MYB51 promoter activity in roots [2]: induced the promoter activities of MYB51
